Measurements: publication PMC2911475 (Journal of molecular biology, 2009)

Biological target: FcsSBP (Fucose Solute Binding Protein)
Assay: isothermal titration calorimetry
Design: species or system Streptococcus pneumoniae
Conditions: 50 mM Tris HCl pH 7.5, 25 °C, one-site model

SMILES: C[C@@H]1O[C@@H](O[C@H]2C(O)O[C@H](CO)[C@H](O)[C@@H]2O[C@H]2O[C@H](CO)[C@H](O)[C@H](O)[C@H]2O)[C@@H](O)[C@H](O)[C@@H]1O (some centres unmarked) [B-trisaccharide, Galα1–3(Fucα1–2)Gal]
- Ka: 1.15 (±0.27) × 10^6

SMILES: CC(=O)N[C@H]1[C@@H](O[C@H]2[C@@H](O)[C@@H](CO)OC(O)[C@@H]2O[C@@H]2O[C@@H](C)[C@@H](O)[C@@H](O)[C@@H]2O)O[C@H](CO)[C@H](O)[C@@H]1O (some centres unmarked) [A-trisaccharide, GalNAcα1–3(Fucα1–2)Gal]
- Ka (crystal structure of SeMet protein): 1.01 (±0.16) × 10^6
